From patent US11458141B2, “Aryl hydrocarbon receptor (AhR) agonists for the prevention and treatment of inflammatory disorders” (The Johns Hopkins University, priority 2017, dated 2022)

Key:
[1] = system: aryl hydrocarbon receptor (AHR) signaling; test: Cypla1 mRNA (AHR signaling) in ileum of mice with experimental NEC, qPCR; type: in vivo, mouse; settings: 4 days, vs vehicle
Description: (§1) Necrotizing enterocolitis (NEC) was induced in 7-day-old mouse pups by gavage feeding and hypoxia exposure for 4 days in presence of abacavir, lansoprazole, tranilast and raberprazole. The ileum was harvested at the end of the experiment and the mRNA expression of target genes was analyzed by qPCR.
Referring now to FIG. 1, the mRNA expression of Cypla1, the down-stream gene of aryl hydrocarbon receptor (AHR) signaling, was quantified in the ileum of experimental NEC models. Data are represented as mean±SEM; *p<0.05 between indicated groups; each dot represents an individual mouse.

mice with NEC = test: mRNA of proinflammatory cytokines and NEC markers in ileum of mice with experimental NEC, qPCR; type: in vivo, mouse; settings: vs vehicle-treated group
Description: as §1
Referring now to FIG. 2, the mRNA expression of pro-inflammatory cytokine tumor necrosis factor alpha (Tnf) was quantified in the ileum of experimental NEC models. Data are represented as mean±SEM; *p<0.05 between indicated groups; each dot represents an individual mouse.
Referring now to FIG. 3, the mRNA expression of pro-inflammatory Interleukin-6 (IL-6) was quantified in the ileum of experimental NEC models. Data are represented as mean±SEM; *p<0.05 between indicated groups; each dot represents an individual mouse.
Referring now to FIG. 4, the mRNA expression of NEC marker S100 calcium binding protein A8 (S100a8) was quantified in the ileum of experimental NEC models. Data are represented as mean±SEM; *p<0.05 between indicated groups; each dot represents an individual mouse.
Referring now to FIG. 5, the mRNA expression of NEC marker lipocalin 2 (Lcn2) was quantified in the ileum of experimental NEC models. Data are represented as mean±SEM; *p<0.05 between indicated groups; each dot represents an individual mouse.
Referring now to FIG. 6, the mRNA expression of NEC marker intestinal fatty acid-binding protein (iFabp) was quantified in the ileum of experimental NEC models. Data are represented as mean±SEM; *p<0.05 between indicated groups; each dot represents an individual mouse.

SMILES | mRNA expression of Cypla1, the down-stream gene of AHR signaling [1] | mRNA expression of NEC marker S100a8 (mice with NEC) | mRNA expression of NEC marker iFabp (mice with NEC) | mRNA expression of Interleukin-6 (IL-6) (mice with NEC) | mRNA expression of NEC marker lipocalin 2 (Lcn2) (mice with NEC) | mRNA expression of tumor necrosis factor alpha (Tnf) (mice with NEC)
COCCCOc1ccnc(C[S+]([O-])c2nc3ccccc3[nH]2)c1C (centres unmarked) [raberprazole] | nor raberprazole, activated AHR signaling pathway | significantly attenuated S100a8 expression | significantly attenuated iFabp expression |  |  | 
Cc1c(OCC(F)(F)F)ccnc1C[S+]([O-])c1nc2ccccc2[nH]1 (centres unmarked) [lansoprazole] | activated AHR signaling pathway | significantly attenuated S100a8 expression | significantly attenuated iFabp expression | significantly attenuated IL-6 expression | significantly attenuated Lcn2 expression | significantly attenuated Tnf expression
Nc1nc(NC2CC2)c2ncn([C@H]3C=C[C@@H](CO)C3)c2n1 [abacavir] | activated AHR signaling pathway | significantly attenuated S100a8 expression |  | significantly attenuated IL-6 expression | significantly attenuated Lcn2 expression | significantly attenuated Tnf expression
